Columns and labels:
[1] = tested on: IL-15 induced STAT5 phosphorylation in human whole blood lymphocytes; assay: HWB IL-15 Induced STAT5 Phosphorylation Assay; type: cell-based; details: Lymphocyte, IL-15 final 50 ng/ml, read-out: HWB_IL15 pSTAT5 IC50
Procedure, shortened: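 Heparinised human whole blood preincubated with compound (0.2% DMSO final) 45 min at 37° C, then stimulated with human IL-15 (50 ng/ml final) for 15 min. After lyse/fix and Perm Buffer III permeabilisation, stained overnight at 4° C with AlexaFluor647 anti-phospho-STAT5; read by flow cytometry gated on total lymphocytes.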

JAK3 enzyme = molecular target: T1, JAK3 enzyme (Homo sapiens, UniProt P52333); assay: JAK Caliper Enzyme Assay at 4 μM ATP; type: biochemical
T1 sequence (P52333 1-1124): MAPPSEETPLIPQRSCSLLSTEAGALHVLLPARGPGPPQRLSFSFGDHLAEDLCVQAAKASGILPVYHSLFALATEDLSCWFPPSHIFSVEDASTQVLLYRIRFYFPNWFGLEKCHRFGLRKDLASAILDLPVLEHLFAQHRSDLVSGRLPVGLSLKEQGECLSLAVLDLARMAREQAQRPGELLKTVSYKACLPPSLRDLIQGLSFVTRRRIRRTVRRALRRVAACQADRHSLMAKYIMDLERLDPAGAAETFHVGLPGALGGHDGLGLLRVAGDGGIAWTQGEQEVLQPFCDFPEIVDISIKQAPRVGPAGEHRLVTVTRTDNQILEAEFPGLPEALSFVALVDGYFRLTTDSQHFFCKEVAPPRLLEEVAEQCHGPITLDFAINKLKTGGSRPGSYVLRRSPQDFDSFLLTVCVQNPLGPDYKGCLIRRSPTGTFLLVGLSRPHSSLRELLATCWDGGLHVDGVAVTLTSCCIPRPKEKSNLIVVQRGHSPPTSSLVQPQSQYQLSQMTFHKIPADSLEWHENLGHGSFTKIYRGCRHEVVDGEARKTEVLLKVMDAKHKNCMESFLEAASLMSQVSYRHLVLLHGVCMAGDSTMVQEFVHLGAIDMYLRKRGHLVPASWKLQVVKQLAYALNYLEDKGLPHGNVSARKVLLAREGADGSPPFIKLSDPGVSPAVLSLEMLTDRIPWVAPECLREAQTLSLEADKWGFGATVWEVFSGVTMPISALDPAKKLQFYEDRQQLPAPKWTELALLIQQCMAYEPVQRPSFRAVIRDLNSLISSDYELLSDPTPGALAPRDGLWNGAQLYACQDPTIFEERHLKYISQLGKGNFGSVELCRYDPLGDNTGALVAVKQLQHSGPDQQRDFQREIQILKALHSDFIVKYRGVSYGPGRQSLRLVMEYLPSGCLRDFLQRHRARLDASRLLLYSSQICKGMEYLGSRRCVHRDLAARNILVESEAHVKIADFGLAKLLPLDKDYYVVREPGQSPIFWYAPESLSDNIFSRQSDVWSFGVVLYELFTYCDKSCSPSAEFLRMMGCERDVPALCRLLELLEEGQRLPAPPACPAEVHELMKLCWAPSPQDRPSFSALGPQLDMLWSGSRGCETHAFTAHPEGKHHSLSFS
Procedure, shortened: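 Peptide phosphorylation by the kinase, adjusted to 20%-30% conversion, is measured by microfluidic separation of substrate and product on a Caliper LC3000. Compounds run as 11-point half-log series from a 600 μM DMSO top concentration.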

[2] = Stability of JAK3 Covalent Inhibitors in Human Whole Blood; type: in vitro ADME; details: both sexes, 1 μM test compound, 37° C., 180 min incubation, read-out: Human blood stability t1/2
Procedure, shortened: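 Parent remaining versus time was derived from LC-MS/MS peak area ratios to internal standard after acetonitrile quench. Incubations ran for 180 min at 37° C, in duplicate, with 1 μM test compound in pooled K2-EDTA human blood (two healthy donors).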

`C=CC(=O)N1CC[C@H](Nc2cnc3[nH]cc(C(=O)NCC)c3n2)C[C@H]1C` (racemic) [Example 40, Trans-racemic-2-{[(2R,4S)-1-acryloyl-2-methylpiperidin-4-yl]amino}-N-ethyl-5H-pyrrolo[2,3-b]pyrazine-7-carboxamide] showed an IC50 [1] of 842 nM, an IC50 (JAK3 enzyme) of 0.384 nM and a half-life at 1 μM [2] of 4.05 h.
Work on `C=CC(=O)N1CCC(Oc2cnc3[nH]cc(C(=O)NC(C)C4CC4)c3n2)CC1` (racemic) [Example 220, Racemic-2-[(1-acryloylpiperidin-4-yl)oxy]-N-(1-cyclopropylethyl)-5H-pyrrolo[2,3-b]pyrazine-7-carboxamide] yielded an IC50 [1] of 1070 nM, an IC50 (JAK3 enzyme) of 0.211 nM and a half-life at 1 μM [2] of 3.7 h.
`C=CC(=O)N1CC[C@@H](Oc2cnc3[nH]cc(C(=O)NCC)c3n2)C[C@@H]1C` (single isomer, unassigned) [Example 79] showed an IC50 [1] of 2710 nM, an IC50 (JAK3 enzyme) of 0.608 nM and a half-life at 1 μM [2] of 5.5 h.
Molecule `C=CC(=O)N1CCN(c2cnc3[nH]cc(C(=O)N[C@H]4CCO[C@H]4C)c3n2)CC1(C)C` [Example 166, 3-({[2-(4-acryloyl-3,3-dimethylpiperazin-1-yl)-5H-pyrrolo[2,3-b]pyrazin-7-yl]carbonyl}amino)-2,5-anhydro-1,3,4-trideoxy-L-threo-pentitol] has an IC50 [1] of 1210 nM, an IC50 (JAK3 enzyme) of 0.667 nM and a half-life at 1 μM [2] of over 6 h.
In the case of `C=CC(=O)N1CCC(Oc2cnc3[nH]cc(C(=O)NC(C)(C)CC)c3n2)CC1` [Example 209, 2-[(1-acryloylpiperidin-4-yl)oxy]-N-(2-methylbutan-2-yl)-5H-pyrrolo[2,3-b]pyrazine-7-carboxamide], the IC50 [1] is reported as over 10000 nM, the IC50 (JAK3 enzyme) is reported as 0.609 nM and the half-life at 1 μM [2] is reported as 4.45 h.
Molecule `C=CC(=O)N1C[C@@H](CF)C[C@@H](Nc2ncnc3[nH]ccc23)C1` (single isomer, unassigned) [Example 103] has an IC50 [1] of 659 nM, an IC50 (JAK3 enzyme) of 0.424 nM and a half-life at 1 μM [2] of 2.28 h.
With `C=CC(=O)N1CCC[C@H](Nc2cnc3[nH]cc(C(=O)NCC)c3n2)C1` (single isomer, unassigned) [Example 36] the IC50 [1] was 1090 nM, the IC50 (JAK3 enzyme) was 0.875 nM and the half-life at 1 μM [2] was over 6 h.
For `C=CC(=O)N1C[C@H](CN2CC[C@H](C#N)C2)C[C@H](Nc2ncnc3[nH]ccc23)C1` [Example 108, (S)-1-(((3S,5S)-5-((7H-pyrrolo[2,3-d]pyrimidin-4-yl)amino)-1-acryloylpiperidin-3-yl)methyl)pyrrolidine-3-carbonitrile], the IC50 [1] was 3480 nM, the IC50 (JAK3 enzyme) was 0.769 nM and the half-life at 1 μM [2] was 2.23 h.
`C=CC(=O)N1CC[C@H](Nc2cnc3[nH]cc(C(=O)NCC)c3n2)[C@H](OC)C1` [Example 326, 2-{[(3R,4S)-1-acryloyl-3-methoxypiperidin-4-yl]amino}-N-ethyl-5H-pyrrolo[2,3-b]pyrazine-7-carboxamide] gave an IC50 [1] of 780 nM, an IC50 (JAK3 enzyme) of 0.455 nM and a half-life at 1 μM [2] of over 6 h.
Molecule `C=CC(=O)N1CCN(c2cnc3[nH]cc(C(=O)N[C@H](CC)CC#N)c3n2)C[C@@H]1CC(C)C` [Example 314, 2-[(3S)-4-acryloyl-3-(2-methylpropyl)piperazin-1-yl]-N-[(2R)-1-cyanobutan-2-yl]-5H-pyrrolo[2,3-b]pyrazine-7-carboxamide] has an IC50 [1] of 402 nM, an IC50 (JAK3 enzyme) of 0.24 nM and a half-life at 1 μM [2] of 3.12 h.
With `C=CC(=O)N1CC[C@@H](Nc2cnc3[nH]cc(C(=O)NCC)c3n2)[C@@H](C)C1` (single isomer, unassigned) [Example 38] the IC50 [1] was 1160 nM, the IC50 (JAK3 enzyme) was 0.328 nM and the half-life at 1 μM [2] was 4.38 h.
`C=CC(=O)N1C[C@H](COCCC#N)C[C@H](Nc2ncnc3[nH]ccc23)C1` [Example 101, 3-{[(3R,5S)-1-Acryloyl-5-(7H-pyrrolo[2,3-d]pyrimidin-4-ylamino)piperidin-3-yl]methoxy}propanenitrile] showed an IC50 [1] of 703 nM, an IC50 (JAK3 enzyme) of 0.219 nM and a half-life at 1 μM [2] of 1.9 h.
`C=CC(=O)N1CC[C@H](Nc2cnc3[nH]cc(C(=O)NCC4CCCC4)c3n2)[C@H](OC)C1` [Example 284, 2-{[(3R,4S)-1-acryloyl-3-methoxypiperidin-4-yl]amino}-N-(cyclopentylmethyl)-5H-pyrrolo[2,3-b]pyrazine-7-carboxamide] gave an IC50 [1] of 819 nM, an IC50 (JAK3 enzyme) of 0.301 nM and a half-life at 1 μM [2] of over 6 h.
Molecule `C=CC(=O)N1CC[C@@H](Oc2cnc3[nH]cc(C(=O)N[C@@H](C)COC)c3n2)C[C@@H]1C` (single isomer, unassigned) [Example 73] has an IC50 [1] of 738 nM, an IC50 (JAK3 enzyme) of 0.971 nM and a half-life at 1 μM [2] of over 6 h.
In the case of `C=CC(=O)N1CC[C@H](Nc2cnc3[nH]cc(C(=O)NCC)c3n2)C[C@H]1C` (single isomer, unassigned) [Example 41], the IC50 [1] is reported as 515 nM, the IC50 (JAK3 enzyme) is reported as 0.159 nM and the half-life at 1 μM [2] is reported as 3.75 h.
Work on `C=CC(=O)N1CCC(Nc2cnc3[nH]cc(C(=O)NCc4cccc(F)c4)c3n2)CC1` [Example 176, 2-[(1-acryloylpiperidin-4-yl)amino]-N-(3-fluorobenzyl)-5H-pyrrolo[2,3-b]pyrazine-7-carboxamide] yielded an IC50 [1] of 318 nM, an IC50 (JAK3 enzyme) of 0.437 nM and a half-life at 1 μM [2] of 4.85 h.
`C=CC(=O)N1CCC(Nc2cnc3[nH]cc(C(=O)NCc4ccc(F)cc4)c3n2)CC1` [Example 188, 2-[(1-acryloylpiperidin-4-yl)amino]-N-(4-fluorobenzyl)-5H-pyrrolo[2,3-b]pyrazine-7-carboxamide] showed an IC50 [1] of 913 nM, an IC50 (JAK3 enzyme) of 0.515 nM and a half-life at 1 μM [2] of over 6 h.
With `C=CC(=O)N1CCC(Oc2cnc3[nH]cc(C(=O)N[C@@H](C)COC)c3n2)CC1` [Example 228, 2-[(1-acryloylpiperidin-4-yl)oxy]-N-[(2S)-1-methoxypropan-2-yl]-5H-pyrrolo[2,3-b]pyrazine-7-carboxamide] the IC50 [1] was 378 nM, the IC50 (JAK3 enzyme) was 0.229 nM and the half-life at 1 μM [2] was 4.23 h.
Work on `C=CC(=O)N1CC[C@@H](Nc2cnc3[nH]cc(C(=O)NCC)c3n2)[C@@H](C)C1` (racemic) [Example 37, Cis-racemic-2-{[(3S,4R)-1-acryloyl-3-methylpiperidin-4-yl]amino}-N-ethyl-5H-pyrrolo[2,3-b]pyrazine-7-carboxamide] yielded an IC50 [1] of 1940 nM, an IC50 (JAK3 enzyme) of 0.375 nM and a half-life at 1 μM [2] of 5.08 h.
`C=CC(=O)N1CCC(Nc2cnc3[nH]cc(C(=O)NCc4ccccc4)c3n2)CC1` [Example 187, 2-[(1-acryloylpiperidin-4-yl)amino]-N-benzyl-5H-pyrrolo[2,3-b]pyrazine-7-carboxamide] gave an IC50 [1] of 240 nM, an IC50 (JAK3 enzyme) of 0.503 nM and a half-life at 1 μM [2] of over 6 h.
Work on `C=CC(=O)N1CCN(c2cnc3[nH]cc(C(=O)N[C@@H](C)COC)c3n2)CC1(C)C` [Example 298, 2-(4-acryloyl-3,3-dimethylpiperazin-1-yl)-N-[(2S)-1-methoxypropan-2-yl]-5H-pyrrolo[2,3-b]pyrazine-7-carboxamide] yielded an IC50 [1] of 1280 nM, an IC50 (JAK3 enzyme) of 0.485 nM and a half-life at 1 μM [2] of over 6 h.
For `C=CC(=O)N1CCC(Oc2cnc3[nH]cc(C(=O)N[C@H]4CC[C@@H](F)C4)c3n2)CC1` [Example 225, 2-[(1-acryloylpiperidin-4-yl)oxy]-N-[(1S,3R)-3-fluorocyclopentyl]-5H-pyrrolo[2,3-b]pyrazine-7-carboxamide], the IC50 [1] was 772 nM, the IC50 (JAK3 enzyme) was 0.233 nM and the half-life at 1 μM [2] was 3.93 h.
With `C=CC(=O)N1CC[C@H](Nc2cnc3[nH]cc(C(=O)NCC(C)CC(F)(F)F)c3n2)[C@H](OC)C1` (mixture of isomers) [Example 328, Racemic-2-{[(3R,4S)-1-acryloyl-3-methoxypiperidin-4-yl]amino}-N-(4,4,4-trifluoro-2-methylbutyl)-5H-pyrrolo[2,3-b]pyrazine-7-carboxamide] the IC50 [1] was 287 nM, the IC50 (JAK3 enzyme) was 0.578 nM and the half-life at 1 μM [2] was 4.2 h.
Molecule `C=CC(=O)N1C[C@@H](CC#N)C[C@@H](Nc2ncnc3[nH]ccc23)C1` (racemic) [Example 105, Cis-racemic-[1-acryloyl-5-(7H-pyrrolo[2,3-d]pyrimidin-4-ylamino)piperidin-3-yl]acetonitrile] has an IC50 [1] of 1070 nM, an IC50 (JAK3 enzyme) of 0.408 nM and a half-life at 1 μM [2] of 2.3 h.
